Assay results published in US20060205774A1, “4-(4-(Heterocyclylakoxy) phenyl-1-(heterocyclyl-carbonyl) piperidine derivavites and related compounds as histamine h3 antagonists for the treatment of neurological diseases such as alzheimer's” (priority 2003, published 2006).

biological target: T1, histamine H3 receptor (Homo sapiens, UniProt Q9Y5N1); test: Histamine H3 functional antagonist assay (GTPγS SPA on membranes); format: biochemical; details: membranes of CHO K1 cells expressing human histamine H3; [35S]GTPγS; histamine 0.3 μM
T1 construct: expressed in transfected cells; host or cells: CHO K1 cells carrying pSwitch, transfected with pGeneH3, mifepristone-induced; clone 3H3; membrane preparation
T1 sequence (Q9Y5N1 whole entry): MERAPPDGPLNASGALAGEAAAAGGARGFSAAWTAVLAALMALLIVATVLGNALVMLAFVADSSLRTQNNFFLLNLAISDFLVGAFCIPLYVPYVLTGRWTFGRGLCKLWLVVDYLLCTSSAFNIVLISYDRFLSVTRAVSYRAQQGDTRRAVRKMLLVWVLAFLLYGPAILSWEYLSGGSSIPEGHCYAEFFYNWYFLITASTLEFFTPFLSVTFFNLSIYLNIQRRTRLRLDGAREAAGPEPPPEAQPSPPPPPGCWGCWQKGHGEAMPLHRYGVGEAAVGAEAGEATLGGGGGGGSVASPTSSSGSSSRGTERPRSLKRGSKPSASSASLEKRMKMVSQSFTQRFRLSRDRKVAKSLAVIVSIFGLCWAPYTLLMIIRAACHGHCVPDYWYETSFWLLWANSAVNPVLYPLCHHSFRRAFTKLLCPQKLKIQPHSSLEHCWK
Experimental: A membrane preparation containing histamine H3 receptors may be prepared in accordance with the following procedures:
Ligated DNA was transformed into competent DH5α E. coli host bacterial cells and plated onto Luria Broth (LB) agar containing Zeocin™ (an antibiotic which allows the selection of cells expressing the sh ble gene which is present on pGene and pSwitch) at 50 μg ml^−1. Colonies containing the re-ligated plasmid were identified by restriction analysis. DNA for transfection into mammalian cells was prepared from 250 ml cultures of the host bacterium containing the pGeneH3 plasmid and isolated using a DNA preparation kit (Qiagen Midi-Prep) as per manufacturers guidelines (Qiagen).
CHO K1 cells previously transfected with the pSwitch regulatory plasmid (InVitrogen) were seeded at 2×10e6 cells per T75 flask in Complete Medium, containing Hams F12 (GIBCOBRL, Life Technologies) medium supplemented with 10% v/v dialysed foetal bovine serum, L-glutamine, and hygromycin (100 μg ml^−1), 24 hours prior to use. Plasmid DNA was transfected into the cells using Lipofectamine plus according to the manufacturers guidelines (InVitrogen). 48 hours post transfection cells were placed into complete medium supplemented with 500 μg ml^−1 Zeocin™.
10-14 days post selection 10 nM Mifepristone (InVitrogen), was added to the culture medium to induce the expression of the receptor. […] Approximately 1×10e7 cells were examined for receptor expression by staining with a rabbit polyclonal antibody, 4a, raised against the N-terminal domain of the histamine H3 receptor, incubated on ice for 60 minutes, followed by two washes in sorting medium. […] Following two further washes with Sorting Medium, cells were filtered through a 50 μm Filcon™ (BD Biosciences) and then analysed on a FACS Vantage SE Flow Cytometer fitted with an Automatic Cell Deposition Unit. […] Positively stained cells were sorted as single cells into 96-well plates, containing Complete Medium containing 500 μg ml^−1 Zeocin™ and allowed to expand before reanalysis for receptor expression via antibody and ligand binding studies. […]

Kb [nM] | Compound
< 1 | CC(C)N1CCC(Oc2ccc(C3CCN(C(=O)c4ccc(C#N)cc4)CC3)cc2)CC1 [Example E12, 4-{[4-(4-{[1-(1-Methylethyl)-4-piperidinyl]oxy}phenyl)-1-piperidinyl]carbonyl}benzonitrile]
< 1 | CC(C)N1CCC(Oc2ccc(C3CCN(C(=O)c4ccc(C#N)nc4)CC3)cc2)CC1 [Example E51, 5-{[4-(4-{[1-(1-Methylethyl)-4-piperidinyl]oxy}phenyl)-1-piperidinyl]carbonyl}-2-pyridinecarbonitrile]
< 1 | CC(C)N1CCC(Oc2ccc(C3CCN(C(=O)c4ccc(C(F)(F)F)nc4)CC3)cc2)CC1 [Example E52, 5-{[4-(4-{[1-(1-Methylethyl)-4-piperidinyl]oxy}phenyl)-1-piperidinyl]carbonyl}-2-(trifluoromethyl)pyridine]
